Read-outs that look alike come from different tables or passages of the source.
Key:
human 4F2hc-LAT1 [1] = target: T1, human 4F2hc-LAT1 (Homo sapiens, UniProt Q01650); assay: Scintillation proximity radioligand binding assay (SPA), [3H]L-leucine competition on purified protein; settings: for Binding of [3H]L-Leucine (%), residual radioligand binding (RRB) / Binding of [3H]L-Leucine (%), residual radioligand binding: normalized to control without competitor; for Binding of [3H]L-Leucine (%), residual radioligand binding: mean of three experiments
T1 construct: Strep-tag (N); made in house; host or cells: Pichia pastoris strain KM71H
Procedure: Purified, GDN-solubilized human 4F2hc-LAT1 was attached via the His-tag to polyvinyltolune (PVT) copper His-tag SPA beads (Perkin Elmer) and the protein-bound [^3H]L-leucine quantified using a scintillation counter (a detailed description of SPA with 4F2hc-LAT1 is given in the methodological publication by ([Kantipudi et al., 2021])). Briefly, experiments were conducted in 96-well plates and per well a reaction volume of 50 µL containing 250 µg PVT-SPA-beads, 1.75 µg 4F2hc-LAT1 protein, 2.5 μM L-leucine spiked with 0.5 µCi [^3H]L-leucine (ARC/Anawa, 100 Ci/mmol, 1 mCi/ml) plus a condition-specific substance. All components were dissolved in SPA-Buffer (100 mM BTP pH 8, 150 mM NaCl, 10% (v/v) glycerol, 0.5% (w/v) GDN). For some condition-specific substances (i.e., the thyroid hormones), 20 min sonication in a water bath at 4°C was necessary to dissolve them at 10× concentration in SPA-Buffer. Per reaction, 5 µL of a 10× stock solution of the condition-specific substance was placed in a well and diluted with 45 µL of a master mix containing the remaining components. For determining the substrate specificities (Figure 1), the twenty proteogenic L-amino acids and D-leucine were used as competitors at a final concentration of 250 µM. For determining the K D of L-leucine (Figure 2A) and K i of L-histidine (Figure 2B), homologous (L-leucine) and heterologous (L-histidine) substrate competition was applied at concentrations ranging from 0.01 to 1600 µM. […] The binding specificities of structural analogues of L-leucine (Figure 3) and L-histidine (Figure 4) were tested at a final competitor concentration of 250 µM. […] To avoid minor unspecific binding of radioactive L-leucine to the beads, the master mix was created in a specific procedure: SPA-beads were first mixed with the unlabeled L-leucine and shaken for 2 h at 4°C before adding the remaining components (protein last). For background subtraction in the bar graph experiments, a no-protein control was included using protein-free master mix (i.e., containing buffer instead of protein solution). The plate was shortly mixed by shaking and incubated at 4°C for ∼18 h before the signals were counted using a microplate scintillation counter (Trilux Microbeta, Perkin Elmer). […] Three experiments with protein from at least two different purifications were performed, each at least in triplicates.
Data were analyzed with Prism 6 (GraphPad Software). […] Each experiment was done with sample number of at least three (triplicate). Data of three independent experiments were merged by adding the normalized data to a common data set, which was used for curve fitting. For data analysis of the bar graphs, the signal of the no-protein control was subtracted from the transporter signal to obtain the net binding signal.

recombinant human LAT1 = test system: recombinant human LAT1; parameters: method as in Napolitano et al., 2015; settings: proteoliposomes, ref Napolitano et al., 2015, cited from earlier work
human 4F2hc-LAT1 [2] = target: T1, human 4F2hc-LAT1; settings: ref Kantipudi et al., 2020, cited from earlier work
[3] = Figure 4, L-histidine analogues, competitor 250 µM
[4] = heterologous competition with [3H]L-leucine, Figure 2B, C, E, F, read-out: Ki
[5] = Figure 3, L-leucine analogues, competitor 250 µM

T1 sequence (Q01650 whole entry): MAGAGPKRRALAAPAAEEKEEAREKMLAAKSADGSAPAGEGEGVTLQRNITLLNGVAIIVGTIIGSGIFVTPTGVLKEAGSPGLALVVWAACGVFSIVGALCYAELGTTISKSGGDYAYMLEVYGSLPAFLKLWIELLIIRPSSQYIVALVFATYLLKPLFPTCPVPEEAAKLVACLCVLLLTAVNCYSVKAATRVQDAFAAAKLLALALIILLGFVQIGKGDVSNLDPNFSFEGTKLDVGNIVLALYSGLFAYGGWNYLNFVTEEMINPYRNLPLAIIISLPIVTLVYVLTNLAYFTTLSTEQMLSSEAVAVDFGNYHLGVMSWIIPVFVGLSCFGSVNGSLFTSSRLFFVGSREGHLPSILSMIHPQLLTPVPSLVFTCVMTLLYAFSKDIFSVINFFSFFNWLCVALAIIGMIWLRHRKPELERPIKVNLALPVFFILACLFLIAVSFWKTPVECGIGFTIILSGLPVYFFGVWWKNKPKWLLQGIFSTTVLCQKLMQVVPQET
T1 sequence (P08195 102-630 partner): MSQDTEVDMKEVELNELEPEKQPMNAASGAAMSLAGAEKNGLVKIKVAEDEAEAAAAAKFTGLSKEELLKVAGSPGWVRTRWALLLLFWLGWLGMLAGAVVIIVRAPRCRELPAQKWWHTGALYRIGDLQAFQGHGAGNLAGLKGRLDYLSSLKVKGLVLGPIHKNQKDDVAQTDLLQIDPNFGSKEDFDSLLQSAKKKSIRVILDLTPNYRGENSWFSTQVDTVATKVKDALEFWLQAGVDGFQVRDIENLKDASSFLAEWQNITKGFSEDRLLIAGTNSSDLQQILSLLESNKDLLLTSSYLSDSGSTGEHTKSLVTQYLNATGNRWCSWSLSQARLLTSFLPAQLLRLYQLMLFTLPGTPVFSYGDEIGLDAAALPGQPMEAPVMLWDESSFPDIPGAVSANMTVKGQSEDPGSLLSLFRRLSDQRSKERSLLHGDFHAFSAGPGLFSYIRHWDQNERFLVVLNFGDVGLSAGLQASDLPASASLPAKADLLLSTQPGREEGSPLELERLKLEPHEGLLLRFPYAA

Cn1cnc(C[C@H](N)C(=O)O)c1 [1-Methyl L-Histidine, 1-methyl-L-histidine]
Binding of [3H]L-Leucine (%), residual radioligand binding (RRB) (human 4F2hc-LAT1 [1]; [3]): 59% | Binding of [3H]L-Leucine (%), residual radioligand binding (RRB) (human 4F2hc-LAT1 [1]; Figure 4, L-histidine analogues, competitor 250 µM, listed as 1-methyl-L-histidine): 59–64%

Cn1cncc1C[C@H](N)C(=O)O [3-Methyl L-Histidine, 3-methyl-L-histidine]
Binding of [3H]L-Leucine (%), residual radioligand binding (RRB) (human 4F2hc-LAT1 [1]; [3]): 64% | Binding of [3H]L-Leucine (%), residual radioligand binding (RRB) (human 4F2hc-LAT1 [1]; Figure 4, L-histidine analogues, competitor 250 µM, listed as 3-methyl-L-histidine): 59–64%

C[C@H](N)C(=O)O [Ala]
Binding of [3H]L-Leucine (%), residual radioligand binding (human 4F2hc-LAT1 [1]; Figure 1, competitor 250 µM): 36%

N=C(N)NCCC[C@H](N)C(=O)O [Arg]
Binding of [3H]L-Leucine (%), residual radioligand binding (human 4F2hc-LAT1 [1]; Figure 1, competitor 250 µM): 68%

NC(=O)C[C@H](N)C(=O)O [Asn]
Binding of [3H]L-Leucine (%), residual radioligand binding (human 4F2hc-LAT1 [1]; Figure 1, competitor 250 µM): 35%

N[C@@H](CC(=O)O)C(=O)O [Asp]
Binding of [3H]L-Leucine (%), residual radioligand binding (human 4F2hc-LAT1 [1]; Figure 1, competitor 250 µM): 45%

NC1(C(=O)O)CC2CCC1C2 (centres unmarked) [BCH, 2-aminobicyclo-(2,2,1)-heptane-2-carboxylic acid]
Ki (human 4F2hc-LAT1 [1]; [4]): 81 µM

N[C@@H](CS)C(=O)O [Cys]
Binding of [3H]L-Leucine (%), residual radioligand binding (human 4F2hc-LAT1 [1]; Figure 1, competitor 250 µM): 35%

CC(C)C[C@@H](N)C(=O)O [D-Leu, D-leucine]
Binding of [3H]L-Leucine (%), residual radioligand binding (human 4F2hc-LAT1 [1]; Figure 1, competitor 250 µM): 52% | inhibition of [3H]L-leucine binding (human 4F2hc-LAT1 [1]; competitor 250 µM, Figure 1): about 50%

NC(=O)CC[C@H](N)C(=O)O [Gln, L-glutamine]
Binding of [3H]L-Leucine (%), residual radioligand binding (human 4F2hc-LAT1 [1]; Figure 1, competitor 250 µM): 29%

N[C@@H](CCC(=O)O)C(=O)O [Glu]
Binding of [3H]L-Leucine (%), residual radioligand binding (human 4F2hc-LAT1 [1]; Figure 1, competitor 250 µM): 90%

NCC(=O)O [Gly]
Binding of [3H]L-Leucine (%), residual radioligand binding (human 4F2hc-LAT1 [1]; Figure 1, competitor 250 µM): 44%

Nc1cc(COc2c(Cl)cc(C[C@H](N)C(=O)O)cc2Cl)c2oc(-c3ccccc3)nc2c1 [JPH203, (S)-2-amino-3-(4-((5-amino-2-phenylbenzo [d]oxazol-7-yl)-methoxy)-3,5-dichlorophenyl)-propanoic acid]
Ki (human 4F2hc-LAT1 [1]; heterologous competition with [3H]L-leucine, Figure 2D, read-out: Ki): 0.079 µM

CC[C@H](N)C(=O)O [L-2-Aminobutyric Acid, L-2-aminobutyric acid]
Binding of [3H]L-Leucine (%), residual radioligand binding (RRB) (human 4F2hc-LAT1 [1]; [5]): 45% | Binding of [3H]L-Leucine (%), residual radioligand binding (RRB) (human 4F2hc-LAT1 [1]; Figure 3, L-leucine analogues, competitor 250 µM, listed as L-2-aminobutyric acid): 37–45%

COC(=O)[C@@H](N)Cc1c[nH]cn1 [L-Histidine Methyl Ester, L-histidine-methyl ester]
Binding of [3H]L-Leucine (%), residual radioligand binding (RRB) (human 4F2hc-LAT1 [1]; [3]): 102% | binding / inhibition of [3H]L-leucine binding to 4F2hc-LAT1, in words (human 4F2hc-LAT1 [1]; competitor 250 µM): no significant binding

N[C@@H](Cc1c[nH]cn1)C(=O)O [L-Histidine, L-histidine]
Km (recombinant human LAT1; external side, read-out: external Km): 24.6 µM | Km (recombinant human LAT1; internal side, read-out: internal Km): 2800 µM | IC50 (human 4F2hc-LAT1 [2]; [3H]L-leucine uptake inhibition, P. pastoris cells): 23 µM | Binding of [3H]L-Leucine (%), residual radioligand binding (human 4F2hc-LAT1 [1]; Figure 1, competitor 250 µM): 2% | Binding of [3H]L-Leucine (%), residual radioligand binding (RRB) (human 4F2hc-LAT1 [1]; [3]): 1% | binding / inhibition of [3H]L-leucine binding to 4F2hc-LAT1, in words (human 4F2hc-LAT1 [1]; competitor 250 µM): inhibited strongly | Ki (human 4F2hc-LAT1 [1]; [4]): 28 µM

CC[C@H](C)[C@H](N)C(=O)O [L-Isoleucine, L-isoleucine]
Binding of [3H]L-Leucine (%), residual radioligand binding (human 4F2hc-LAT1 [1]; Figure 1, competitor 250 µM): 19-29% | Binding of [3H]L-Leucine (%), residual radioligand binding (human 4F2hc-LAT1 [1]; Figure 1, competitor 250 µM, listed as Ile): 22% | Binding of [3H]L-Leucine (%), residual radioligand binding (RRB) (human 4F2hc-LAT1 [1]; [5]): 28%

CC(C)C[C@H](N)C(=O)O [L-Leucine, L-leucine]
Km (human 4F2hc-LAT1 [2]; P. pastoris cell uptake assay): 25 µM | Binding of [3H]L-Leucine (%), residual radioligand binding (human 4F2hc-LAT1 [1]; Figure 1, competitor 250 µM): 1% | Binding of [3H]L-Leucine (%), residual radioligand binding (RRB) (human 4F2hc-LAT1 [1]; [5]): 1% | binding / inhibition of [3H]L-leucine binding to 4F2hc-LAT1, in words (human 4F2hc-LAT1 [1]; competitor 250 µM): inhibited strongly | Kd (human 4F2hc-LAT1 [1]; homologous competition with [3H]L-leucine, Figure 2A): 26 µM

COC(=O)[C@@H](N)CC(C)C [L-Leucine-Methyl Ester, L-leucine-methyl ester]
Binding of [3H]L-Leucine (%), residual radioligand binding (RRB) (human 4F2hc-LAT1 [1]; [5]): 106% | binding / inhibition of [3H]L-leucine binding to 4F2hc-LAT1, in words (human 4F2hc-LAT1 [1]; competitor 250 µM): no significant binding

CC(C)(C)C[C@H](N)C(=O)O [L-Neopentylglycine, L-neopentyl glycine]
Binding of [3H]L-Leucine (%), residual radioligand binding (RRB) (human 4F2hc-LAT1 [1]; [5]): 43% | Binding of [3H]L-Leucine (%), residual radioligand binding (RRB) (human 4F2hc-LAT1 [1]; Figure 3, L-leucine analogues, competitor 250 µM, listed as L-neopentyl glycine): 32–43%

CCCC[C@H](N)C(=O)O [L-Norleucine, L-norleucine]
Binding of [3H]L-Leucine (%), residual radioligand binding (RRB) (human 4F2hc-LAT1 [1]; [5]): 62%

CCC[C@H](N)C(=O)O [L-Norvaline, L-norvaline]
Binding of [3H]L-Leucine (%), residual radioligand binding (RRB) (human 4F2hc-LAT1 [1]; [5]): 32% | Binding of [3H]L-Leucine (%), residual radioligand binding (RRB) (human 4F2hc-LAT1 [1]; Figure 3, L-leucine analogues, competitor 250 µM, listed as L-norvaline): 32–43%

CC(C)[C@H](N)C(=O)O [L-Valine, L-valine]
Binding of [3H]L-Leucine (%), residual radioligand binding (human 4F2hc-LAT1 [1]; Figure 1, competitor 250 µM): 19-29% | Binding of [3H]L-Leucine (%), residual radioligand binding (human 4F2hc-LAT1 [1]; Figure 1, competitor 250 µM, listed as Val): 19% | Binding of [3H]L-Leucine (%), residual radioligand binding (RRB) (human 4F2hc-LAT1 [1]; [5]): 27%

CC(C)(C)[C@H](N)C(=O)O [L-tert-Leucine, L-tert-leucine]
Binding of [3H]L-Leucine (%), residual radioligand binding (RRB) (human 4F2hc-LAT1 [1]; [5]): 37% | Binding of [3H]L-Leucine (%), residual radioligand binding (RRB) (human 4F2hc-LAT1 [1]; Figure 3, L-leucine analogues, competitor 250 µM, listed as L-tert-leucine): 37–45%

NCCCC[C@H](N)C(=O)O [Lys]
Binding of [3H]L-Leucine (%), residual radioligand binding (human 4F2hc-LAT1 [1]; Figure 1, competitor 250 µM): 45%

CSCC[C@H](N)C(=O)O [Met]
Binding of [3H]L-Leucine (%), residual radioligand binding (human 4F2hc-LAT1 [1]; Figure 1, competitor 250 µM): 36%

CN[C@@H](Cc1c[nH]cn1)C(=O)O [N-Methyl L-Histidine, N-methyl-L-histidine]
Binding of [3H]L-Leucine (%), residual radioligand binding (RRB) (human 4F2hc-LAT1 [1]; [3]): 103% | binding / inhibition of [3H]L-leucine binding to 4F2hc-LAT1, in words (human 4F2hc-LAT1 [1]; competitor 250 µM): no significant binding

CN[C@@H](CC(C)C)C(=O)O [N-Methyl-L-Leucine, N-methyl-L-leucine]
Binding of [3H]L-Leucine (%), residual radioligand binding (RRB) (human 4F2hc-LAT1 [1]; [5]): 103% | binding / inhibition of [3H]L-leucine binding to 4F2hc-LAT1, in words (human 4F2hc-LAT1 [1]; competitor 250 µM): no significant binding

N[C@@H](Cc1ccccc1)C(=O)O [Phe, L-phenylalanine]
Binding of [3H]L-Leucine (%), residual radioligand binding (human 4F2hc-LAT1 [1]; Figure 1, competitor 250 µM): 29% | Binding of [3H]L-Leucine (%), residual radioligand binding (human 4F2hc-LAT1 [1]; Figure 1, competitor 250 µM, listed as L-phenylalanine): 19-29%

N[C@@H](CO)C(=O)O [Ser]
Binding of [3H]L-Leucine (%), residual radioligand binding (human 4F2hc-LAT1 [1]; Figure 1, competitor 250 µM): 46%

NC(Cc1cc(I)c(Oc2cc(I)c(O)c(I)c2)c(I)c1)C(=O)O (centres unmarked) [T4, thyroxine]
Ki (human 4F2hc-LAT1 [1]): 10 µM

C[C@@H](O)[C@H](N)C(=O)O [Thr]
Binding of [3H]L-Leucine (%), residual radioligand binding (human 4F2hc-LAT1 [1]; Figure 1, competitor 250 µM): 34%

N[C@@H](Cc1c[nH]c2ccccc12)C(=O)O [Trp, L-tryptophan]
Binding of [3H]L-Leucine (%), residual radioligand binding (human 4F2hc-LAT1 [1]; Figure 1, competitor 250 µM): 21% | Binding of [3H]L-Leucine (%), residual radioligand binding (human 4F2hc-LAT1 [1]; Figure 1, competitor 250 µM, listed as L-tryptophan): 19-29%

N[C@@H](Cc1ccc(O)cc1)C(=O)O [Tyr, L-tyrosine]
Binding of [3H]L-Leucine (%), residual radioligand binding (human 4F2hc-LAT1 [1]; Figure 1, competitor 250 µM): 26% | Binding of [3H]L-Leucine (%), residual radioligand binding (human 4F2hc-LAT1 [1]; Figure 1, competitor 250 µM, listed as L-tyrosine): 19-29%

Reference: paper PMC9989278, “Characterization of substrates and inhibitors of the human heterodimeric transporter 4F2hc-LAT1 using purified protein and the scintillation proximity radioligand binding assay” (Frontiers in Physiology, 2023)
